# According to US20060094068A1, “Predictive markers in cancer therapy” (priority 2002, published 2006):
# Entries after “also recorded” stand apart in the source; their conditions may differ.
# Tests used:
# AKT [1] = test: AKT phosphorylation in S1 cells; type: cell-based, human
# Erk1/2 [2] = test: Erk1/2 activation in BT474 cells (Western blot); type: cell-based, human
# AKT [3] = test: AKT activation in BT474 cells (Western blot); type: cell-based, human; details: 1 μM, 24 h, with or without EGF
# Erk1/2 [4] = test: Erk1/2 activation in HN5 cells (Western blot); type: cell-based, human
# AKT [5] = test: AKT activation in HN5 cells (Western blot); type: cell-based, human; details: 5 μM, 24 h
# HN5 cells [6] = test: Apoptosis and growth arrest in HN5 cells; type: cell-based, human
# Erk1/2 [7] = test: p-Erk1/2 in Hb4a cells (Western blot); type: cell-based, human; details: 72 h, GW572016 5 μM, Herceptin 10 μg/ml
# Hb4a cells = test: Hb4a cell growth, viable cell count by trypan blue exclusion; type: cell-based, human; details: GW572016 2.5 μM + EGF 50 ng/ml, 72 h
# Procedure: Exponentially growing Hb4a cells were cultured in 35 mm petri dishes with serum-free medium containing 1.5% BSA. […] Viable cells were counted after 72 h using trypan blue exclusion.
# Erk1/2 [8] = test: p-Erk1/2 in HN5 tumor xenografts (Western blot); type: in vivo, CD-1 nude mice
# Procedure: (§1) HN5 cells were grown in DMEM supplemented with 10% fetal bovine serum, sodium pyruvate and L-glutamine at 37° C. in a 95/5% air/CO2 atmosphere. […] Cells (2×10^6/mouse) in 0.2 ml were injected into the right flank of CD-1 nude mice. Female CD-1 nude mice were acquired from Charles River Laboratories. Mice were maintained in filter-topped cages in an aseptic environment with laminar flow filtered ventilation. […] Tumors were biopsied pre-treatment and 4 hours after the last dose. All animal surgery was conducted under aseptic conditions. For the initial biopsy, mice were anesthetized with isofluorane inhalation. The skin over the tumor was disinfected with iodine. A small hemostat was used to tease away the skin from the tumor, and scissors were used to make a 1 cm incision over the tumor. A scalpel and forceps were used to remove approximately 100 mg of tumor. The tumor was then frozen in liquid nitrogen. Wound clips were used to close the incision. The anesthetized mice were kept warm until they recovered mobility, usually less than 1-2 minutes. For the terminal biopsy, mice were euthanized with CO2 inhalation, and the remainder of the tumor excised. HN5 tumors were placed on dry ice in vials containing cold isopentane, nd stored at −80° C. prior to study. […]
# AKT [9] = test: p-AKT in HN5 tumor xenografts (Western blot); type: in vivo, CD-1 nude mice
# Procedure: as §1
# erbB2 [10] = biological target: T1, erbB2 (Homo sapiens, UniProt P04626); test: Quantitative IHC of erbB2 in HN5 and BT474 xenografts; type: in vivo, mice; details: 200 mg/kg oral once daily
# T1 sequence (P04626 23-1255): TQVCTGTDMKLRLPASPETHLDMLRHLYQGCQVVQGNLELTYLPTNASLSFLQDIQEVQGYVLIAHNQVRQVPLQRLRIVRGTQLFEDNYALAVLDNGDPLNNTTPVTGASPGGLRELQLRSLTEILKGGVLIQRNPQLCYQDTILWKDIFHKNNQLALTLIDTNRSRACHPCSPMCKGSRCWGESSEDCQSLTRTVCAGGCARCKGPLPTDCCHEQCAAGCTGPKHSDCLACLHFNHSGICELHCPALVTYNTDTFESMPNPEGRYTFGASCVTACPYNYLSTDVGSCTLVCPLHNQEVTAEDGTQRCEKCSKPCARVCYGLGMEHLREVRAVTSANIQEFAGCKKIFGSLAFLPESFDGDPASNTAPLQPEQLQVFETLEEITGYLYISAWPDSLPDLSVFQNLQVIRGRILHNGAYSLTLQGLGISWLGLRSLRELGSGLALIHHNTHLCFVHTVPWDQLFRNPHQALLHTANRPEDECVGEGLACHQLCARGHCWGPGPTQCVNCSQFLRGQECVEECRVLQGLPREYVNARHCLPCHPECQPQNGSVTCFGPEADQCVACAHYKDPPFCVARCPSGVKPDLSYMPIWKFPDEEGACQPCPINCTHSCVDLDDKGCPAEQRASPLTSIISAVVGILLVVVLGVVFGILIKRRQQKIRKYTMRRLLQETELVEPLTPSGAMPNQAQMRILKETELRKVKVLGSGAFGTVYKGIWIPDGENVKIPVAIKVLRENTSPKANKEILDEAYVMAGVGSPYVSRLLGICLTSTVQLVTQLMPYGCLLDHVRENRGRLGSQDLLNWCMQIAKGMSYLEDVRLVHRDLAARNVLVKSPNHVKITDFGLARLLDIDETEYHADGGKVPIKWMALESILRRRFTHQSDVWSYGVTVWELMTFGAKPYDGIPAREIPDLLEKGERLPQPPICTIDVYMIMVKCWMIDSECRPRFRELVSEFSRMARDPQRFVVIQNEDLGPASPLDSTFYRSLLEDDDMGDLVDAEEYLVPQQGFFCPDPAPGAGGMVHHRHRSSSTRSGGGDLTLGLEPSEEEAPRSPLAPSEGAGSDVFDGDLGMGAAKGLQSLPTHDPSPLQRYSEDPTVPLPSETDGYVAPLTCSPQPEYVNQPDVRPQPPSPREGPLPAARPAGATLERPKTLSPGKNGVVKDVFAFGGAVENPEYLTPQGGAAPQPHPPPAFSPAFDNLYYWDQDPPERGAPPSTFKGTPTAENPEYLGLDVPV
# Erk1/2 [11] = test: Quantitative IHC of Erk1/2 in tumor xenografts; type: in vivo, mice
# Source text: DAB (Dako) was used as the chromogen.
# Inhibition of erbB2/EGFR p-tyr in turn led to the inhibition of downstream activated, phospho-Erk1/2.
# HN5 cells [12] = details: cited from earlier work
# erbB2 [13] = biological target: T1, erbB2; test: EGF stimulation experiment, p-Tyr/erbB2 in BT474 cells; details: 1 μM, 24 h, serum-free, with or without EGF 50 ng/ml
# erbB2 [14] = biological target: T1, erbB2; test: Clinical trial, erbB2 p-tyr and total erbB2 in tumor biopsies (IHC); details: patient 361, 1200 mg/day
# solid tumors = test: Clinical trial, clinical response (RECIST re-staging at eight weeks); details: for Clinical response at 8 weeks: 1200 mg/d
# Erk1/2 [15] = test: Clinical trial, localisation of total Erk1/2 in tumor biopsies (IHC); details: patient 361, day 21; before treatment nuclear
# Source text: Erk1/2 (1:1200), erbB3 (1:10), heregulin (1:25), and TGFα (1:20) were also immunostained using the BenchMark™ with I-VIEW detection chemistry.
# p-AKT = test: Clinical trial, p-AKT in sequential tumor biopsies (quantitative IHC); details: patient 361, after 21 days of treatment
# cyclin D1 = test: Clinical trial, cyclin D1 in sequential tumor biopsies (quantitative IHC)
# p-Erk1/2 = test: Clinical trial, p-ERK index in sequential tumor biopsies (quantitative IHC); details: patient 361, day 21
# S1 cells = test: Cell cycle analysis / apoptosis in S1 cells (propidium iodide flow cytometry); details: 5 μM, 72 h
# Procedure: Cells were harvested and fixed with 70% ethanol in PBS. Cell pellets were then resuspended in 0.5 ml PBS containing propidium iodide (50 μg/ml) and DNase-free RNase (100 μg/ml). Cell cycle analysis was performed using a BD Flow Cytometer (Becton Dickinson, San Jose, Calif., USA).
# After 72 h, cell cycle analysis was performed using propidium iodide staining and flow cytometry as described in Materials and methods.
# [16] = tested on: ERK MAP kinases and PKB/Akt; details: SKOV (human ovarian cancer) cells, preincubation; cited from earlier work
# activated MAPK and Ki-67 = details: humans, phase I trials, normal skin biopsies before and after administration; cited from earlier work
# [17] = 72 h, GW572016 500 nM or 1 μM, Herceptin 10 μg/ml
smiles,measurement,setting,value
"CS(=O)(=O)CCNCc1ccc(-c2ccc3ncnc(Nc4ccc(OCc5cccc(F)c5)c(Cl)c4)c3c2)o1 [GW572016, N-{3-Chloro-4-[(3-fluorobenzyl)oxy]phenyl}-6-[5-({[2-(methylsulfonyl)ethyl]amino}methyl)-2-furyl]4-quinazolinamine]",Baseline phosphorylation of AKT,AKT [1],inhibits baseline phosphorylation of AKT
same,EGF stimulation of p-Erk1/2,"Erk1/2 [2]; 1 μM, 24 h, EGF 50 ng/ml",inhibited EGF stimulation of p-Erk1/2
same,p-Erk1/2 levels compared with untreated controls,Erk1/2 [2]; [17],inhibited p-Erk1/2
same,p-AKT (Ser 473),AKT [3],completely inhibited p-AKT
same,Downstream p-Erk1/2,"Erk1/2 [4]; 5 μM, 24 h",inhibited downstream p-Erk1/2
same,p-Erk1/2 levels compared with untreated controls,Erk1/2 [4]; [17],inhibited p-Erk1/2
same,p-AKT,AKT [5],inhibits baseline phosphorylation of AKT
same,Growth arrest,HN5 cells [6],growth arrest was seen
same,Baseline p-Erk,Erk1/2 [7],"reduced the baseline amount of p-Tyr/erbB2 and p-Erk, effects not reversed by EGF; also recorded: decreased"
same,Growth inhibition with concurrent EGF,Hb4a cells,did not reverse
same,p-Erk1/2,Erk1/2 [8]; 10 mg/kg,little effect
same,p-Erk1/2,Erk1/2 [8]; 30 mg/kg/dose,inhibited p-Erk1/2 and p-AKT
same,p-AKT,AKT [9]; 10 mg/kg,little effect
same,p-AKT,AKT [9]; 30 mg/kg/dose,inhibited p-Erk1/2 and p-AKT
same,Activated erbB2 (IHC),erbB2 [10],inhibition of activated EGFR and erbB2 in a dose-dependent manner
same,erbB2 total protein (IHC),erbB2 [10],neither EGFR nor erbB2 total protein was affected
same,Total Erk1/2 protein (IHC),Erk1/2 [11],unaffected
same,p-Erk1/2 levels (IHC),Erk1/2 [11],reduced
same,Apoptosis (Rusnak et al.),HN5 cells [12],increased only slightly
same,Baseline levels of p-Tyr/erbB2,erbB2 [13],"inhibited baseline levels of p-Tyr/erbB2, an effect not reversed by EGF"
same,Total erbB2 protein,erbB2 [14],had no effect
same,erbB2 p-tyr,erbB2 [14]; day 21,did not inhibit
same,Clinical response at 8 weeks,"solid tumors; patient 361, breast",partial responses
same,Sequentially biopsied metastatic lymph node,"solid tumors; patient 364, 1600 mg/day, at day 21 biopsy",had reduced in size
same,Clinical response at 8 weeks,"solid tumors; patient 372, breast",partial responses
same,Stable Disease at eight weeks,solid tumors; patients with >70% decrease in pERK index,Stable Disease: 3/5
same,Localisation of total Erk1/2 protein,Erk1/2 [15],almost entirely cytoplasmic
same,Inhibition of p-AKT,p-AKT,33%
same,Inhibition of expressed cyclin D1 protein,"cyclin D1; patient 361, day 21",90%
same,Decrease in cyclin D1,"cyclin D1; patient 372, day 21",80%
same,Activated Erk1/2 in re-biopsy of metastatic subcutaneous nodule,p-Erk1/2,completely inhibited; also recorded: completely inactivated
same,Increase in percentage of apoptotic cells vs vehicle controls,S1 cells,23 fold
COc1cc2ncnc(Nc3ccc(F)c(Cl)c3)c2cc1OCCCN1CCOCC1 [ZD1839],EGF-induced increases in activation of ERK MAP kinases and PKB/Akt,[16],block EGF-induced increases in activation of ERK MAP kinases and PKB/Akt
same,Expression of activated MAPK and Ki-67 in keratinocytes,activated MAPK and Ki-67,decreased expression of both activated MAPK and Ki-67
